From patent US4147787A, “4,5,6,7-Tetrahydro-thieno[2,3-c]-and [3,2-c]-pyridines, and therapeutic compositions containing the same” (Parcor, priority 1977, dated 1979)

What was measured:
[1] = Acute toxicity (LD50, method according to Miller and Tainter); settings: mouse, in vivo, mice, intravenous, read-out: LD50 /24h/kg body weight
[2] = test system: rat globules (red corpuscles); assay: In vitro anti-sludge activity, preventive treatment (protamine sulfate); type: cell-based
Protocol: (§1) Said activity was investigated in vitro and in vivo in rats.
(§2) Thrice washed rat globules are diluted to 1/250 in physiological saline. In each of 5 tubes are placed 0.6 ml of this suspension and 0.2 ml physiological saline. To each tube is then added 0-25-50-100 and 200 μg, respectively, of the test derivative contained in 0.2 ml solution. After incubation for one hour at 37° C., 0.2 ml of a solution containing 125 μg/ml protamine sulfate are added, after which the tube is then incubated again for 0.5 hour at 37° C. The globules of each tube are then examined with a Mallases cell, and the percent free globules and the percent aggregates formed by 2, 3, 4, 5 etc.. globules is then recorded.

[3] = test system: A.D.P. induced blood-platelet aggregation; assay: A.D.P. induced blood-platelet aggregation; type: in vivo, Wistar rats; settings: Rattus norvegicus, po; 100 mg/kg orally, rats, 3 hours after treatment, 10 μM A.D.P. solution; read-out: Percent inhibition of blood-platelet aggregation, A.D.P.
Protocol: (§3) A blood sample is taken from the jugular vein of Wistar rats. From this citrated blood and after centifugation, a plasma is reconstituted which contains 600,000 ± 20,000 blood-platelets per ml, which plasma is then used in all aggregation determinations.
(§4) 0.4 ml plasma is placed in a siliconized tube provided with a magnet bar, also siliconized. The tube is introduced into an aggregometer connected to an apparatus which records optical density variations. When light transmission has attained a stable value, 0.5 ml of a solution containing 10 μM A.D.P. (adenosinediphosphate) is added to the tube.
(§5) Blood-platelet aggregation induces an increase of light transmission, followed by a decrease subsequent to the deaggregation phase.
(§6) Different groups of 20 rats each are used, each group being orally administered 100 mg/kg of a test derivative.

[4] = test system: Collagen-induced blood-platelet aggregation; assay: Collagen-induced blood-platelet aggregation; type: in vivo, Wistar rats; settings: Rattus norvegicus, po; 100 mg/kg orally, rats, 3 hours after treatment; read-out: Percent inhibition of blood-platelet aggregation, Collagen
Protocol: as §3, §4, §5
The A.D.P. solution is substituted with a collagen (bovine tendon extract) solution.
as §6

thrombus = assay: Anti-thrombosis properties (metal helix in vena cava inferior, based on Friedman); type: in vivo, female Wistar rats; settings: from Table IV
Description: The technique used is based on that disclosed by Friedman (Amer. J. Med. Sci., 253, 83, 1967). […] A 1.8 cm long sharp metal helix is introduced in the lumen of the vessel at the level of the renal fork and "screwed" toward the iliac veins. Five hours later, the animal is again anesthetized with ether. […] The helix, together with the thrombus it retains, is taken out after carefully opening the vena cava throughout the length involved; it is then dried by repeated dabbing with filter paper and is weighed a first time. Immediately thereafter, the helix is freed from its thrombus in a physiological saline bath, and is then again dried and weighed. The difference in weight gives the weight of the thrombus. It was found on histological examination that these were white thrombi.
Different groups of 10 rats each are treated by gastric intubation with one of the test derivatives, 48 hours, 24 hours and 2 hours prior to the implantation of the metal helix. Samples were taken five hours after said implantation.
Identical tests were carried out with dipyridamole and acetylsalicylic acid.

[5] = test system: rat globules (red corpuscles); assay: In vitro anti-sludge activity, curative procedure (protamine sulfate); type: cell-based; settings: 25 μg
Protocol: as §1, §2
The experiment was repeated according to a "curvative" procedure; the red corpuscles were first contacted with protamine sulfate and, after incubation for 0.5 hour, 0.2 ml containing 25 μg of test derivative were added thereto, which operation is followed by another incubation for one hour at 37° C. The results obtained are reported in Table III, in which the percent agglomerates as a function of size is indicated.

Q: Which LD50 at 24 h [1] does the source give for `O=C(O)[C@@H]1NCc2ccsc2[C@@H]1O` (relative stereo) [Example 1, 6-Carboxy-7-hydroxy-4,5,6,7-tetrahydro-thieno[3,2-c]pyridine] here?
A: Its LD50 at 24 h is 118 mg/kg.

Q: What about the “percent agglomerates, size 2” value ([2]; 25 μg) of the same compound?
A: The value was 25%.

Q: What about the “percent agglomerates, size 3” value ([2]; 25 μg) of the same compound?
A: Its value is 11%.

Q: What about the “percent agglomerates, size 4” value ([2]; 25 μg) of the same compound?
A: Its value is 0%.

Q: And the “percent agglomerates, size 5” value ([2]; 25 μg)?
A: The value was 0%.

Q: And the “percent agglomerates, size 6” value ([2]; 25 μg)?
A: The value was 0%.

Q: And the “percent agglomerates, size 7” value ([2]; 25 μg)?
A: Its value is 0%.

Q: What about the “percent agglomerates, size 8” value ([2]; 25 μg) of the same compound?
A: The value was 0%.

Q: What about the “percent agglomerates, size 9” value ([2]; 25 μg) of the same compound?
A: The value was 0%.

Q: And the “percent agglomerates, size 10” value ([2]; 25 μg)?
A: Its value is 0%.

Q: What about the “percent agglomerates, size 11” value ([2]; 25 μg) of the same compound?
A: The value was 0%.

Q: What about the “percent agglomerates, size 12” value ([2]; 25 μg) of the same compound?
A: The value was 0%.

Q: And the “percent agglomerates, size 13” value ([2]; 25 μg)?
A: The value was 0%.

Q: What about the “percent free red corpuscles (size of agglomerates 1)” value (shortened to “percent free red corpuscles”) ([2]; 25 μg) of the same compound?
A: The value was 64%.

Q: What about the “percent agglomerates, size 2” value ([2]; 50 μg) of the same compound?
A: Its value is 24%.

Q: What about the “percent agglomerates, size 3” value ([2]; 50 μg) of the same compound?
A: Its value is 5%.

Q: And the “percent agglomerates, size 4” value ([2]; 50 μg)?
A: The value was 2%.

Q: What about the “percent agglomerates, size 5” value ([2]; 50 μg) of the same compound?
A: Its value is 0%.

Q: What about the “percent agglomerates, size 6” value ([2]; 50 μg) of the same compound?
A: The value was 0%.

Q: What about the “percent agglomerates, size 7” value ([2]; 50 μg) of the same compound?
A: Its value is 0%.

Q: What about the “percent agglomerates, size 8” value ([2]; 50 μg) of the same compound?
A: Its value is 0%.

Q: What about the “percent agglomerates, size 9” value ([2]; 50 μg) of the same compound?
A: Its value is 0%.

Q: What about the “percent agglomerates, size 10” value ([2]; 50 μg) of the same compound?
A: The value was 0%.

Q: And the “percent agglomerates, size 11” value ([2]; 50 μg)?
A: Its value is 0%.

Q: What about the “percent agglomerates, size 12” value ([2]; 50 μg) of the same compound?
A: The value was 0%.

Q: What about the “percent agglomerates, size 13” value ([2]; 50 μg) of the same compound?
A: Its value is 0%.

Q: What about the “percent free red corpuscles” value ([2]; 50 μg) of the same compound?
A: The value was 69%.

Q: And the “percent agglomerates, size 2” value ([2]; 100 μg)?
A: The value was 7%.

Q: And the “percent agglomerates, size 3” value ([2]; 100 μg)?
A: The value was 4%.

Q: What about the “percent agglomerates, size 4” value ([2]; 100 μg) of the same compound?
A: The value was 3%.

Q: And the “percent agglomerates, size 5” value ([2]; 100 μg)?
A: The value was 0%.

Q: And the “percent agglomerates, size 6” value ([2]; 100 μg)?
A: The value was 0%.

Q: And the “percent agglomerates, size 7” value ([2]; 100 μg)?
A: The value was 0%.

Q: And the “percent agglomerates, size 8” value ([2]; 100 μg)?
A: Its value is 0%.

Q: And the “percent agglomerates, size 9” value ([2]; 100 μg)?
A: The value was 0%.

Q: And the “percent agglomerates, size 10” value ([2]; 100 μg)?
A: The value was 0%.

Q: And the “percent agglomerates, size 11” value ([2]; 100 μg)?
A: Its value is 0%.

Q: And the “percent agglomerates, size 12” value ([2]; 100 μg)?
A: Its value is 0%.

Q: What about the “percent agglomerates, size 13” value ([2]; 100 μg) of the same compound?
A: The value was 0%.

Q: What about the “percent free red corpuscles” value ([2]; 100 μg) of the same compound?
A: Its value is 86%.

Q: And the “percent agglomerates, size 2” value ([2]; 200 μg)?
A: The value was 9%.

Q: What about the “percent agglomerates, size 3” value ([2]; 200 μg) of the same compound?
A: Its value is 2%.

Q: And the “percent agglomerates, size 4” value ([2]; 200 μg)?
A: The value was 0%.

Q: And the “percent agglomerates, size 5” value ([2]; 200 μg)?
A: The value was 0%.

Q: And the “percent agglomerates, size 6” value ([2]; 200 μg)?
A: Its value is 0%.

Q: What about the “percent agglomerates, size 7” value ([2]; 200 μg) of the same compound?
A: Its value is 0%.

Q: And the “percent agglomerates, size 8” value ([2]; 200 μg)?
A: Its value is 0%.

Q: What about the “percent agglomerates, size 9” value ([2]; 200 μg) of the same compound?
A: Its value is 0%.

Q: And the “percent agglomerates, size 10” value ([2]; 200 μg)?
A: The value was 0%.

Q: What about the “percent agglomerates, size 11” value ([2]; 200 μg) of the same compound?
A: The value was 0%.

Q: And the “percent agglomerates, size 12” value ([2]; 200 μg)?
A: Its value is 0%.

Q: What about the “percent agglomerates, size 13” value ([2]; 200 μg) of the same compound?
A: Its value is 0%.

Q: What about the “percent free red corpuscles” value ([2]; 200 μg) of the same compound?
A: Its value is 89%.

Q: And the inhibition at 100 mg/kg [3]?
A: The inhibition at 100 mg/kg was 63.8%.

Q: And the inhibition at 100 mg/kg [4]?
A: Its inhibition at 100 mg/kg is 95.8%.

Q: With `CC(=O)Oc1ccccc1C(=O)O` [acetylsalicylic acid] as the compound, how does the “anti-thrombosis activity (in words)” value (thrombus) read?
A: The value was “little activity”.

Q: With `OCCN(CCO)c1nc(N2CCCCC2)c2nc(N(CCO)CCO)nc(N3CCCCC3)c2n1` [dipyridamole] as the compound, how does the “anti-thrombosis activity (in words)” value (thrombus) read?
A: The value was “no activity”.

Q: Which results are given for `O=C(O)C1Cc2sccc2CN1Cc1ccccc1Cl` (centres unmarked) [Example 23, 5-o-Chlorobenzyl-6-carboxy-4,5,6,7-tetrahydro-thieno[3,2-c]pyridine]?
A: LD50 at 24 h [1]: 180 mg/kg; percent agglomerates, size 2 [5]: 10%; percent agglomerates, size 3 [5]: 4%; percent agglomerates, size 4 [5]: 1%; percent agglomerates, size 5 [5]: 0%; percent agglomerates, size 6 [5]: 0%; percent agglomerates, size 7 [5]: 0%; percent agglomerates, size 8 [5]: 0%; percent agglomerates, size 9 [5]: 0%; percent agglomerates, size 10 [5]: 0%; percent free red corpuscles (size of agglomerates 1) [5]: 85%; percent agglomerates, size 2 ([2]; 25 μg): 21%; percent agglomerates, size 3 ([2]; 25 μg): 16%; percent agglomerates, size 4 ([2]; 25 μg): 3%; percent agglomerates, size 5 ([2]; 25 μg): 0%; percent agglomerates, size 6 ([2]; 25 μg): 0%; percent agglomerates, size 7 ([2]; 25 μg): 0%; percent agglomerates, size 8 ([2]; 25 μg): 0%; percent agglomerates, size 9 ([2]; 25 μg): 0%; percent agglomerates, size 10 ([2]; 25 μg): 0%; percent agglomerates, size 11 ([2]; 25 μg): 0%; percent agglomerates, size 12 ([2]; 25 μg): 0%; percent agglomerates, size 13 ([2]; 25 μg): 0%; percent free red corpuscles (size of agglomerates 1) ([2]; 25 μg): 60%; percent agglomerates, size 2 ([2]; 50 μg): 25%; percent agglomerates, size 3 ([2]; 50 μg): 6%; percent agglomerates, size 4 ([2]; 50 μg): 4%; percent agglomerates, size 5 ([2]; 50 μg): 0%; percent agglomerates, size 6 ([2]; 50 μg): 0%; percent agglomerates, size 7 ([2]; 50 μg): 0%; percent agglomerates, size 8 ([2]; 50 μg): 0%; percent agglomerates, size 9 ([2]; 50 μg): 0%; percent agglomerates, size 10 ([2]; 50 μg): 0%; percent agglomerates, size 11 ([2]; 50 μg): 0%; percent agglomerates, size 12 ([2]; 50 μg): 0%; percent agglomerates, size 13 ([2]; 50 μg): 0%; percent free red corpuscles (size of agglomerates 1) ([2]; 50 μg): 65%; percent agglomerates, size 2 ([2]; 100 μg): 14%; percent agglomerates, size 3 ([2]; 100 μg): 5%; percent agglomerates, size 4 ([2]; 100 μg): 1%; percent agglomerates, size 5 ([2]; 100 μg): 0%; percent agglomerates, size 6 ([2]; 100 μg): 0%; percent agglomerates, size 7 ([2]; 100 μg): 0%; percent agglomerates, size 8 ([2]; 100 μg): 0%; percent agglomerates, size 9 ([2]; 100 μg): 0%; percent agglomerates, size 10 ([2]; 100 μg): 0%; percent agglomerates, size 11 ([2]; 100 μg): 0%; percent agglomerates, size 12 ([2]; 100 μg): 0%; percent agglomerates, size 13 ([2]; 100 μg): 0%; percent free red corpuscles (size of agglomerates 1) ([2]; 100 μg): 78%; percent agglomerates, size 2 ([2]; 200 μg): 11%; percent agglomerates, size 3 ([2]; 200 μg): 4%; percent agglomerates, size 4 ([2]; 200 μg): 2%; percent agglomerates, size 5 ([2]; 200 μg): 0%; percent agglomerates, size 6 ([2]; 200 μg): 0%; percent agglomerates, size 7 ([2]; 200 μg): 0%; percent agglomerates, size 8 ([2]; 200 μg): 0%; percent agglomerates, size 9 ([2]; 200 μg): 0%; percent agglomerates, size 10 ([2]; 200 μg): 0%; percent agglomerates, size 11 ([2]; 200 μg): 0%; percent agglomerates, size 12 ([2]; 200 μg): 0%; percent agglomerates, size 13 ([2]; 200 μg): 0%; percent free red corpuscles (size of agglomerates 1) ([2]; 200 μg): 83%; inhibition at 100 mg/kg [3]: 63.9%; inhibition at 100 mg/kg [4]: 95.2%
